# From US6472541B2, “Protecting groups with increased photosensitivities” (The Regents of the University of California, priority 1998, dated 2002)
# Where a name gives a salt, the structure may show the parent alone.
# Experiments:
# [1] = Electronic absorption and emission properties; assay type: physicochemical; details: for λmax Wavelength of peak absorbance: pH 7.2; for ε Molar absorptivity at absorbance peak: pH 7.2, at absorbance peak
# Procedure: Generally, chemicals and solvents were used directly as received unless otherwise noted. Acetonitrile, chloroform and dichloromethane were dried over 4A molecular sieves. Proton magnetic resonance spectra (^1H NMR) were recorded on a Gemini 200 MHz spectrometer (Varian; Palo Alto, Calif.) and reported in ppm (δ) downfield from tetramethylsilane with residual solvent peaks as the internal standards. Ultraviolet spectra were recorded on a Cary 3E UV-Visible spectrophotometer (Varian, Palo Alto, Calif., USA). Fluorescence spectra were recorded on a Fluorolog spectrofluorometer (SPEX; Edison, N.J., USA). Mass spectra were recorded on a electrospray mass spectrometer (5989B, Hewlett-Packard; Palo Alto, Calif., USA). Thin layer chromatography (TLC) and column chromatography were performed on precoated silica gel 60F-254 plates and 230-400 mesh silica gel 60 respectively (EM Separations; Gibbstown, N.J., USA). All manipulations of compounds sensitive to near ultraviolet light were performed under an orange safety lamp.
# (§1) The electronic absorption and emission properties of the compounds were measured and the stability of the compounds toward hydrolysis in the dark was tested. Stability in the dark can be used to help identify photolabile protecting groups that can be used in a variety of different conditions. Specifically, the quantum efficiencies for one-photon excitation and rates of hydrolysis in the dark were determined.
# [2] = One-photon photolysis quantum efficiency (UV irradiation, HPLC analysis); assay type: physicochemical
# Procedure: as §1
# […] The duration of each irradiation period was controlled by an electronic shutter. Between each irradiation, a small aliquot (10 μL) of the solution was removed for analysis by reversed phase HPLC with a Betabasic-18 column eluted with a isocratic mixture of 60% acetonitrile and water containing 0.1% trifluoracetic acid at a flow rate of 0.8 mL/min, using absorbance detection at 325 nm. […] […] Quantum efficiencies were calculated as (Iσt90%)^−1, where I is the irradiation intensity in einsteins (cm^−2s^−1), σ is the decadic extinction coefficient in cm^2mol^−1 (10^3 times ε, the usual extinction coefficient in M^−1cm^−1), and t90% is the irradiation time in seconds for 90% conversion to product. […] Dark hydrolysis rates were measured similarly except without illumination.
# [3] = In vitro measurements of two-photon uncaging and fluorescence cross-sections; assay type: physicochemical; details: pH 7.2
# Procedure: Measurements of cross-sections for two-photon uncaging were carried out in microcuvettes with cylindrical cavities having a 1 cm path length and 20 μL total volume (Type 26F, Starna). Femtosecond infrared pulses from a mode-locked titanium-sapphire laser (Spectra-Physics TSUNAMI, pumped by a Spectra-Physics MILLENNIUM) were aimed along the axis of the sample chamber and focused in its center with a 25 mm focal length lens (06LXP003/076, Melles Griot, Irvine, Calif.) optimized for infrared lasers. The pulse parameters were estimated by replacing the caged compound by a solution of fluorescein, a reference compound of known fluorescence quantum yield Qf2 (0.9) and two-photon absorbance cross-section δaF (30 and 38 GM at 740 and 800 nm respectively). The time-averaged fluorescence <F(t)>collected by the detector is given by equation (1)
# <F(t)>=0.5φQf2δaFCF<I0^2(t)>∫S^2(r)dV (1)
# where φ is the collection efficiency of the detector, CF is the concentration of fluorescein, <I0^2(t)> is the mean squared light intensity, S(r) is a unitless spatial distribution function, and the integral is over the volume of the microcuvette. The fluorescence emitted at right angles to the laser beam was measured through a 535 nm bandpass filter in front of a silicon photodiode radiometer (IL1700, International Light). The collection efficiency φ was estimated as Ay/(4πR^2n^2), where A is the area of the detector (0.38 cm^2), y is the fraction of the integrated emission spectrum transmitted by the interference filter (0.377), measured separately in a spectrofluorometer, R is the distance from the center of the cuvette to the detector (3.83 cm), and n is the refractive index of water (1.333). For photolysis of a caged compound or substrate, the number NP of molecules of product formed per unit time is (eq. 2):
# NP=0.5Qu2δaSCS<I0^2(t)>∫S^2(r)dV (2)
# where Qu2, δaS, and CS are the quantum efficiency for two-photon uncaging, absorbance cross-section, and concentration of the substrate, respectively. NP was measured by HPLC sampling of the microcuvette as for the one-photon photolysis. The uncaging action cross-section δu2 (≡Qu2δaS) can therefore be estimated by (eq. 3): [formula]
# Similarly, when the substrate is also fluorescent, its two-photon fluorescence action cross-section δf2S (≡Qf2SδaS) can be estimated as (eq. 4): [formula]
# Here the subscripts S and F distinguish values for the substrate and for the fluorescein reference. If one assumes that one- and two-photon quantum efficiencies are the same, then δu2/Qu1 and δf2S/Qf1S should both equal δaS. In fact, the former values are typically about twice the latter. All of them are directly proportional to the assumed value of Qf2 for fluorescein.
# [4] = Mechanism of photolysis (triplet state lifetime); assay type: physicochemical
# Description: The halogenated coumarin derivatives have good dark stability, and high one-photon and two-photon uncaging efficiencies. Without being bound to any particular theory, halogenation of the coumarin may have increased the two-photon cross-sections by lowering the pKa of the chromophore below physiological pH and promoting formation of the more strongly absorbing anion. Also, the heavy atoms may promote intersystem crossing to the triplet, which is believed to be the photochemically reactive state. […] The mechanism of photolysis of compound 7 and compound 23 indicate that the solvolysis occurs via the triplet state with a lifetime of about 1 μs. […] Although compound 6 had the highest cross-section, its photolysis was complicated by multiple secondary photoproducts. The monobromo compound (compound 5) was much more tractable and easily formed caged compounds.
# [5] = test system: rat cortical neurons; test: One-photon UV uncaging of caged glutamate on brain slices, neuronal responses; assay type: cell-based; details: one-photon UV uncaging at 365 nm, 10 mW, average
# Procedure: The photolabile protecting groups can be uncaged by one-photon or two-photon photolysis. One-photon ultraviolet uncaging experiments were carried out on brain slices. In particular, compound 7 was used to deliver glutamate to rat cortical neurons. One-photon UV uncaging of caged glutamate compound at 365 nm released the glutamate. Neuronal responses were measured after directly stimulating cells as described in Sawatari and Callaway, Nature 380:442-446 (1996). The cells were exposed to compound 7 (Bhc-Glu) or γ-(α-carboxy-2-nitrobenzyl)glutamate, trifluoroacetate salt (compound 1, CNB-glutamate). The one-photon uncaging was carried out as described in FIG. 1 depicts the lower power needed to uncage compound 7 (Bhc-Glu) in the neuron sample in comparison to compound 1 (alpha-carboxy nitrobenzyl-caged glutamate, CNB-Glu). At 10 mW the compound 7-stimulated neurons respond, on average, at amplitudes 80% of their maximum, while compound 1-stimulated neurons are responding at less than 20% of their maximum amplitudes.
# [6] = Hydrolysis in the dark (dark stability); assay type: physicochemical; details: buffered solution, read-out: t0.5 Half-life for hydrolysis in the dark (converted)
# Procedure: as §1
# The photolysis quantum efficiencies for one-photon excitation were determined by irradiating a buffered solution of the substrate with 365 nm ultraviolet light from a B-100 mercury lamp (Spectronics Corp., Westbury, N.Y.). The duration of each irradiation period was controlled by an electronic shutter. Between each irradiation, a small aliquot (10 μL) of the solution was removed for analysis by reversed phase HPLC with a Betabasic-18 column eluted with a isocratic mixture of 60% acetonitrile and water containing 0.1% trifluoracetic acid at a flow rate of 0.8 mL/min, using absorbance detection at 325 nm. Optical densities at 365 nm were maintained near 0.1 so that inner-filtering of the irradiation could be neglected. […] Quantum efficiencies were calculated as (Iσt90%)^−1, where I is the irradiation intensity in einsteins (cm^−2s^−1), σ is the decadic extinction coefficient in cm^2mol^−1 (10^3 times ε, the usual extinction coefficient in M^−1cm^−1), and t90% is the irradiation time in seconds for 90% conversion to product. The total UV intensity, I, was measured by chemical actinometry with 6 mM potassium ferrioxalate in the same setup. Dark hydrolysis rates were measured similarly except without illumination.
# [7] = 515 nm rather than 365 nm (footnote g)
ε Molar Absorptivity at 365 nm [1],ε Molar Absorptivity at 400 nm [1],λmax Wavelength of peak absorbance [1] [nm],ε Molar absorptivity at absorbance peak [1],Qu1 Quantum efficiency for uncaging with one-photon excitation at 365 nm [2],εQu1 One-photon action cross section (product of molar absorptivity and photolysis quantum yield) at 365 nm [2] [M⁻¹ cm⁻¹],δu (740 nm) uncaging action cross-section for two-photon excitation [3],δu (800 nm) uncaging action cross-section for two-photon excitation [3],λem [1] [nm],"ε Molar Absorptivity (measured at 515 nm) [1, 7]","Qu1 Quantum efficiency for uncaging with one-photon excitation (measured at 515 nm) [2, 7]","εQu1 One-photon action cross section (ε and Qu1 measured at 515 nm) [2, 7]",δf (800 nm) fluorescence action cross-section for two-photon excitation [3],Qf1 Quantum efficiency for fluorescence with one-photon excitation [1],half-life [6] [h],δf (740 nm) fluorescence action cross-section for two-photon excitation [3],SMILES,Lifetime of triplet state through which solvolysis occurs [4],"Neuron response amplitude, percent of maximum amplitude [5]"
"19,200 M^−1cm^−1","7,560 M^−1cm^−1",369,"19,550 M^−1cm^−1",0.019,364,0.89 ± 10^−50 cm^4s/photon,0.42 ± 10^−50 cm^4s/photon,,,,,,,,,"N[C@@H](CCC(=O)OCc1cc(=O)oc2cc(O)c(Br)cc12)C(=O)O [Compound 8, γ-(6-Bromo-7-hydroxycoumarin-4-yl)methyl glutamate]",,
,,,,,,,,,,,,,,,,"CCOP(=O)(OCC)OCc1cc(=O)oc2cc(O)c(Br)cc12 [Compound 23, 6-Bromo-7-hydroxycoumarin-4-ylmethyl diethylphosphate]",about 1 μs,
,,,,,,1.6 10^−50 cm^4s/photon,2.6 10^−50 cm^4s/photon,538,"41,200 M^−1cm^−1",0.038,"1,565 M^−1cm^−1",68 10^−50 cm^4s/photon,,,,O=c1ccc2c(CCl)c3ccc(O)cc3oc-2c1 [Compound 9],,
"14,800 M^−1cm^−1","5,000 M^−1cm^−1",370,"15,000 M^−1cm^−1",0.037,548,1.99 ± 10^−50 cm^4s/photon,0.42 ± 10^−50 cm^4s/photon,474,,,,1.41 ± 10^−50 cm^4s/photon,0.22,183,4.24 ± 10^−50 cm^4s/photon,"CC(=O)OCc1cc(=O)oc2cc(O)c(Br)cc12 [Compound 5, 6-Bromo-7-hydroxycoumarin-4-ylmethyl acetate]",,
"15,900 M^−1cm^−1","5,000 M^−1cm^−1",370,"16,000 M^−1cm^−1",0.019,302,1.07 ± 10^−50 cm^4s/photon,0.34 ± 10^−50 cm^4s/photon,474,,,,3.22 ± 10^−50 cm^4s/photon,0.37,228,9.68 ± 10^−50 cm^4s/photon,"CC(=O)OCc1cc(=O)oc2cc(O)c(Cl)cc12 [Compound 4, 6-Chloro-7-hydroxycoumarin-4-ylmethyl acetate]",,
"9,700 M^−1cm^−1","15,700 M^−1cm^−1",397,"15,900 M^−1cm^−1",0.065,630,0.96 ± 10^−50 cm^4s/photon,3.1 ± 10^−50 cm^4s/photon,498,,,,,0.16,218,,"CC(=O)OCc1c(Br)c(=O)oc2c(Br)c(O)c(Br)cc12 [Compound 6, 3,6,8-Tribromo-7-hydroxycoumarin-4-ylmethyl acetate]",,

SMILES,ε Molar Absorptivity at 365 nm [1],ε Molar Absorptivity at 400 nm [1],λmax Wavelength of peak absorbance [1] [nm],ε Molar absorptivity at absorbance peak [1],Qu1 Quantum efficiency for uncaging with one-photon excitation at 365 nm [2],εQu1 One-photon action cross section (product of molar absorptivity and photolysis quantum yield) at 365 nm [2] [M⁻¹ cm⁻¹],δu (740 nm) uncaging action cross-section for two-photon excitation [3],δu (800 nm) uncaging action cross-section for two-photon excitation [3],λem [1] [nm],"ε Molar Absorptivity (measured at 515 nm) [1, 7]","Qu1 Quantum efficiency for uncaging with one-photon excitation (measured at 515 nm) [2, 7]","εQu1 One-photon action cross section (ε and Qu1 measured at 515 nm) [2, 7]",δf (800 nm) fluorescence action cross-section for two-photon excitation [3],Qf1 Quantum efficiency for fluorescence with one-photon excitation [1],half-life [6] [h],δf (740 nm) fluorescence action cross-section for two-photon excitation [3],Lifetime of triplet state through which solvolysis occurs [4],"Neuron response amplitude, percent of maximum amplitude [5]"
"COc1cc(COC(=O)CCC(N)C(=O)O)c([N+](=O)[O-])cc1OC (stereo not drawn) [Compound 2, reference compound]","7,300 M^−1cm^−1","1,570 M^−1cm^−1",345,"8,860 M^−1cm^−1",0.004,29,,,,,,,,,,,,
"NC(CCC(=O)OC(C(=O)O)c1ccccc1[N+](=O)[O-])C(=O)O (stereo not drawn) [Compound 1, γ-(α-carboxy-2-nitrobenzyl)glutamate, trifluoroacetate salt, reference compound]",180 M⁻¹ cm⁻¹,,,,0.14,25,,,,,,,,,,,,less than 20%
